# Reference: patent US20240197652A1, “KETAMINE IN THE TREATMENT OF […]” (Awakn LS Europe Holdings Limited, priority 2021, published 2024)
# Experiments:
# Type in all cases: in vivo, human
# [1] = system: subjects with binge eating disorder; experiment: Adverse events, KSET, Example 8; conditions: three binge eating disorder subjects; 100 mg racemic ketamine sublingual
# [2] = system: subjects with binge eating disorder; experiment: Binge Eating Scale (BES), Example 8; conditions: for Binge Eating Scale score at 2-week follow up / BES classification at two-week follow up: after 100 mg racemic ketamine sublingual; for BES classification, pre-administration / Binge Eating Scale score, pre-administration: baseline before 100 mg racemic ketamine sublingual; for % change in Binge Eating Scale: pre-administration to 2-week follow up, 100 mg racemic ketamine sublingual
# Description: Binge eating disorder may be characterised as being mild, moderate, and severe. The severity of binge eating disorder may be determined by the Binge Eating Scale (BES), wherein a score below 17 indicates no binge eating disorder, a score of between 18-20 indicates mild binge eating disorder, a score of between 21-27 indicates moderate binge eating disorder, and a score above 27 indicates severe binge eating disorder (Grupski et al., 2013), or based on ordinary skill. In embodiments, a patient may have binge eating disorder characterised as being mild. In other embodiments, a patient may have binge eating disorder characterised as being moderate. In other embodiments, a patient may have binge eating disorder characterised as being severe.
# A study was completed on the use of ketamine to treat binge eating disorder. Subjects were assessed for binge eating disorder using the Binge Eating Scale (BES), and included if they received a BES score greater than 15. Three subjects in total were included (BE1-BE3, and interchangeably on FIGS. 5 and 6 as BED1-BED3, these being the same subjects). All three were administered sublingual lozenges comprising 100 mg of racemic ketamine.
# The treatment protocol commenced in substantially the same way as disclosed in the ketamine in subjects with gambling disorder study completed in EXAMPLE 7, with the exceptions outlined as follows: No behavioural tasks were completed. Blood samples collected every 10 minutes from the time of administration to 90 minutes post-administration were additionally analysed for leptin and ghrelin. Self-report measures included the Binge Eating Scale, the Adult Attachment Interview (AAI), a 20 question interview about the subject's recollections of their childhood (Sykes and Turner, 2015); the Childhood Trauma Questionnaire; the Morningness-Eveningness Questionnaire (MEQ), a 19-item questionnaire designed to assess when a respondent prefers to wake up or start sleep (American Thoracic Society, 2022); the DSM-5 Binge Eating Disorder diagnostic criteria; and the SPSRQ.
# [3] = system: subjects of EXAMPLES 7-10; experiment: Beck Depression Inventory (BDI), subjects of Examples 7-10; conditions: for BDI Score at the one-week follow up / Depression Severity at the One Week Follow Up (BDI): after 100 mg racemic ketamine sublingual; for BDI Score pre-treatment / Depression Severity Pre-Treatment (BDI): baseline before 100 mg racemic ketamine sublingual; for % Change in BDI score: pre-treatment to one-week follow up, 100 mg racemic ketamine sublingual
# Experimental: The study spanned a total of 30 days (not counting initial contact and prescreening). Prescreening of all subjects was conducted by phone, and subjects recorded self-report measures, including the Sensitivity to Punishment and Sensitivity to Reward Questionnaire (SPSRQ) and the Gambling Related Cognitions Questionnaire. Prior to beginning treatment, each subject completed the Beck Depression Inventory (BDI) to determine a baseline depression score. Total scores of 0-13 are minimal, 14-19 are mild, 20-28 are moderate, and 29-63 are severe (Beck, Steer, and Brown, 1996).
# [4] = system: subjects with gaming disorder; experiment: Craving for Gaming Questionnaire (CGQ), Example 9; conditions: for CGQ score at 2-week follow up: after 100 mg racemic ketamine sublingual; for CGQ score, pre-administration: baseline before 100 mg racemic ketamine sublingual; for % change in Craving for Gaming Questionnaire: pre-administration to 2-week follow up, 100 mg racemic ketamine sublingual
# Experimental: A study was completed on ketamine to treat gaming disorder. Subjects were assessed for gaming disorder using the Internet Gaming Disorder Scale (IGDS) and were included if they received an IGDS score greater than 3. Three subjects in total were included (IG1-IG3). All three were administered sublingual lozenges comprising 100 mg of racemic ketamine.
# The treatment protocol commenced in the same manner as disclosed in the ketamine in subjects with gambling disorder study completed in EXAMPLE 7, with the exceptions as follow: No behavioural tasks were completed. Self-report measures completed during EXAMPLE 9 included Social Phobia Inventory (SPIN), the Craving for Gaming Questionnaire (CGQ), and Generalised Anxiety Disorder-7 (GAD-7) the Sensitivity to Reward and Punishment Scale, and the Childhood Trauma Questionnaire, the Morningness-Eveningness Questionnaire (MEQ).
# [5] = system: subjects with gaming disorder; experiment: Adverse events, KSET, Example 9; conditions: three gaming disorder subjects; 100 mg racemic ketamine sublingual
# [6] = subject BE1 (binge eating disorder)
# [7] = subject BE2 (binge eating disorder)
# [8] = subject BE3 (binge eating disorder)
compound,measurement,setting,value
"CNC1(c2ccccc2Cl)CCCCC1=O (racemic) [ketamine, 2-(2-chlorophenyl)-2-(methylamino)-cyclohexanone]",course of adverse events,[1],"All adverse events were transient, and resolved two hours post-lozenge"
same,overall tolerability,[1],"well-tolerated, with no drop-outs"
same,unexpected adverse reactions (KSET),[1],no unexpected adverse reactions were observed
same,Binge Eating Scale score at 2-week follow up,[2]; subject BE1,24
same,"BES classification, pre-administration",[2]; subject BE1,moderate binge eating disorder (a score of between 21-27 indicates moderate binge eating disorder)
same,"Binge Eating Scale score, pre-administration",[2]; subject BE1,26
same,BES classification at two-week follow up,"[2]; subject BE1, moderate binge eating disorder pre-administration",remained so
same,% change in Binge Eating Scale,[2]; subject BE1,−7.69%
same,Binge Eating Scale score at 2-week follow up,[2]; subject BE2,35
same,"Binge Eating Scale score, pre-administration",[2]; subject BE2,32
same,% change in Binge Eating Scale,[2]; subject BE2,+9.38%
same,Binge Eating Scale score at 2-week follow up,[2]; subject BE3,28
same,"BES classification, pre-administration",[2]; subject BE3,severe binge eating disorder (a score above 27 indicates severe binge eating disorder)
same,"Binge Eating Scale score, pre-administration",[2]; subject BE3,42
same,% change in Binge Eating Scale,[2]; subject BE3,−33.33%
same,BES classification at two-week follow up,"[2]; subject BE3, severe binge eating disorder pre-administration",one point away from the moderate classification
same,BDI Score at the one-week follow up,[3]; [6],2
same,BDI Score pre-treatment,[3]; [6],9
same,% Change in BDI score,[3]; [6],−77.78%
same,BDI Score at the one-week follow up,[3]; [7],15
same,BDI Score pre-treatment,[3]; [7],19
same,% Change in BDI score,[3]; [7],−21.05%
same,BDI Score at the one-week follow up,[3]; [8],1
same,BDI Score pre-treatment,[3]; [8],21
same,% Change in BDI score,[3]; [8],−95.24%
same,Depression Severity at the One Week Follow Up (BDI),[3]; subject BE3,Minimal (Total scores of 0-13 are minimal)
same,Depression Severity Pre-Treatment (BDI),[3]; subject BE3,Moderate (20-28 are moderate)
same,BDI Score at the one-week follow up,[3]; subject CSB1 (CSBD),9
same,BDI Score pre-treatment,[3]; subject CSB1 (CSBD),24
same,% Change in BDI score,[3]; subject CSB1 (CSBD),−62.50%
same,Depression Severity at the One Week Follow Up (BDI),[3]; subject CSB1,Minimal (Total scores of 0-13 are minimal)
same,Depression Severity Pre-Treatment (BDI),[3]; subject CSB1,Moderate (20-28 are moderate)
same,BDI Score at the one-week follow up,[3]; subject CSB2 (CSBD),12
same,BDI Score pre-treatment,[3]; subject CSB2 (CSBD),14
same,% Change in BDI score,[3]; subject CSB2 (CSBD),−14.29%
same,Depression Severity at the One Week Follow Up (BDI),[3]; subject CSB2,Minimal (Total scores of 0-13 are minimal)
same,Depression Severity Pre-Treatment (BDI),[3]; subject CSB2,Mild (14-19 are mild)
same,BDI Score at the one-week follow up,[3]; subject CSB3 (CSBD),7
same,BDI Score pre-treatment,[3]; subject CSB3 (CSBD),19
same,% Change in BDI score,[3]; subject CSB3 (CSBD),−63.16%
same,Depression Severity at the One Week Follow Up (BDI),[3]; subject CSB3,Minimal (Total scores of 0-13 are minimal)
same,Depression Severity Pre-Treatment (BDI),[3]; subject CSB3,Mild (14-19 are mild)
same,BDI Score at the one-week follow up,[3]; subject G1 (gambling disorder),9
same,BDI Score pre-treatment,[3]; subject G1 (gambling disorder),8
same,% Change in BDI score,[3]; subject G1 (gambling disorder),+12.5%
same,BDI Score at the one-week follow up,[3]; subject G2 (gambling disorder),24
same,BDI Score pre-treatment,[3]; subject G2 (gambling disorder),21
same,% Change in BDI score,[3]; subject G2 (gambling disorder),+14.29%
same,BDI Score at the one-week follow up,[3]; subject G3 (gambling disorder),14
same,BDI Score pre-treatment,[3]; subject G3 (gambling disorder),17
same,% Change in BDI score,[3]; subject G3 (gambling disorder),−17.65%
same,BDI Score at the one-week follow up,[3]; subject G4 (gambling disorder),6
same,BDI Score pre-treatment,[3]; subject G4 (gambling disorder),8
same,% Change in BDI score,[3]; subject G4 (gambling disorder),−25%
same,BDI Score at the one-week follow up,[3]; subject G5 (gambling disorder),11
same,BDI Score pre-treatment,[3]; subject G5 (gambling disorder),12
same,% Change in BDI score,[3]; subject G5 (gambling disorder),−8.33%
same,BDI Score at the one-week follow up,[3]; subject IG1 (gaming disorder),10
same,BDI Score pre-treatment,[3]; subject IG1 (gaming disorder),15
same,% Change in BDI score,[3]; subject IG1 (gaming disorder),−33.33%
same,Depression Severity at the One Week Follow Up (BDI),[3]; subject IG1,Minimal (Total scores of 0-13 are minimal)
same,Depression Severity Pre-Treatment (BDI),[3]; subject IG1,Mild (14-19 are mild)
same,BDI Score at the one-week follow up,[3]; subject IG2 (gaming disorder),8
same,BDI Score pre-treatment,[3]; subject IG2 (gaming disorder),4
same,% Change in BDI score,[3]; subject IG2 (gaming disorder),+100%
same,BDI Score at the one-week follow up,[3]; subject IG3 (gaming disorder),9
same,BDI Score pre-treatment,[3]; subject IG3 (gaming disorder),10
same,% Change in BDI score,[3]; subject IG3 (gaming disorder),−10%
same,CGQ score at 2-week follow up,[4]; subject IG1,28
same,"CGQ score, pre-administration",[4]; subject IG1,30
same,% change in Craving for Gaming Questionnaire,[4]; subject IG1,−6.67%
same,CGQ score at 2-week follow up,[4]; subject IG2,15
same,"CGQ score, pre-administration",[4]; subject IG2,31
same,% change in Craving for Gaming Questionnaire,[4]; subject IG2,−51.61%
same,CGQ score at 2-week follow up,[4]; subject IG3,21
same,"CGQ score, pre-administration",[4]; subject IG3,45
same,% change in Craving for Gaming Questionnaire,[4]; subject IG3,−53.33%
same,course of adverse events,[5],"All adverse events were transient, and resolved two hours post-lozenge"
same,overall tolerability,[5],"well-tolerated, with no drop-outs"
same,unexpected adverse reactions (KSET),[5],No unexpected adverse reactions were observed
